Experimental data reported in the Biogen ADME set (Fang et al. 2023).
≈ marks a conversion by molar mass, not a printed value.

Settings: for aqueous solubility: pH 6.8

MDR1-MDCK efflux ratio	intrinsic clearance, human liver microsomes [mL/min/kg]	intrinsic clearance, rat liver microsomes [mL/min/kg]	aqueous solubility [µg/mL]	fraction unbound, human plasma	fraction unbound, rat plasma	Compound
45	14.2	131	61.7 (≈ 138 µM)	–	–	COc1cc(N2CCN(C)CC2)ccc1Nc1ncc2c(n1)N(C)c1ccccc1C(=O)N2
0.524	32.9	161	36 (≈ 149 µM)	–	–	Cc1cccnc1CNc1ccc(C#N)cc1F
7.15	≤ 4.74	37.5	69.6 (≈ 179 µM)	0.71	0.633	O=C1NCCN(C(=O)c2ccc3nccn3c2)C1c1ccccc1C(F)(F)F (stereo unspecified)
0.571	8.12	48.2	22.9 (≈ 74.3 µM)	–	–	Cc1nn(C)c2ncc(C(=O)Nc3ccc4c(c3)CCO4)cc12
0.689	19.2	388	39.6 (≈ 131 µM)	–	–	Cc1nn(Cc2csc(-c3cccs3)n2)c(N)c1C#N
0.723	≤ 4.74	117	31.7 (≈ 124 µM)	–	–	O=C(NCc1cnn(-c2ccccc2)c1)C1CCC1
1.18	45	845	58.4 (≈ 163 µM)	–	–	O=C(c1sc(N2CCOCC2)nc1-c1ccccc1)N1CCCCC1
–	43.3	368	2.49 (≈ 6.7 µM)	–	–	Cc1cc(C(=O)NC2CCN(c3ncnc4sc(C)c(C)c34)CC2)on1
3.81	48.5	582	–	–	–	Nc1nnc(SCCSC2CCCCC2)n1C1CC1
0.696	99.1	3630	–	–	–	Cc1ccnc(N2CC(O)(c3ccc(F)cc3)C2)c1C#N
–	–	–	80.3 (≈ 193 µM)	–	–	CN(c1ccccc1)S(=O)(=O)c1csc(C(=O)Nc2ccc(C(=O)O)cc2)c1
0.442	73.8	429	2.61 (≈ 8.6 µM)	–	–	COCc1ccccc1CNc1ccc2cc(C#N)ccc2n1
0.34	–	–	–	0.0162	0.0151	CCn1c(=O)oc2cc(NC(=O)c3ccc(C(C)(C)C)cc3)ccc21
10.8	64.4	499	–	–	–	CC(=O)NC1CCC(NCCSc2ccc(C)cc2)CC1 (stereo unspecified)
–	–	–	–	0.201	0.0419	CC(C)[C@@](C)(O)[C@@H]1CN(c2nc(-c3n[nH]c4ncccc34)c(F)cc2Cl)CCN1
–	26.3	99.7	46.6 (≈ 160 µM)	–	–	CC(C)CCN1CCn2c1nc1c2c(=O)n(C)c(=O)n1C
–	137	569	–	–	–	Cc1ccnc(NC(=O)c2ccnc(C)n2)c1
0.671	67.1	105	24 (≈ 107 µM)	–	–	COc1cncc(-c2ccnc3[nH]ccc23)c1
25.6	≤ 4.74	28.1	40.4 (≈ 125 µM)	–	–	O=c1[nH]nc(CCCN2CCOCC2)n1-c1cccc(Cl)c1
0.796	120	967	30.5 (≈ 76.9 µM)	–	–	O=C(CN1CCCN(c2ccc(C(F)(F)F)cn2)CC1)Nc1cccc(F)c1
59.5	≤ 4.74	29.3	46.3 (≈ 134 µM)	–	–	CC(=O)NCC1CCN(C(=O)c2cncn2-c2ccc(F)cc2)CC1
39	29.1	56.4	–	–	–	Cc1cc(C(=O)N(C)C2CCSCC2)c(=O)n(C)c1C
–	–	–	0.45 (≈ 1.23 µM)	–	–	O=C(Nc1nc2ccccc2[nH]1)c1cc(-c2ccccc2)nc2ccccc12
3.02	≤ 4.74	22	–	–	–	COCCN(C)c1ccc(CN2CCc3nn(C)c(=O)cc3C2)cn1
1.5	55	591	47.3 (≈ 136 µM)	–	–	COC(=O)c1c(C)[nH]c(C(=O)N(C)Cc2ccc(OC)c(F)c2)c1C
0.636	140	2250	–	–	–	Cc1cnccc1-c1cnc(N(C)C)nc1-c1ccco1
1.17	–	–	0.17 (≈ 0.438 µM)	–	–	N#C/C(=C\c1cnn(Cc2ccccc2)c1)c1nc2cc(Cl)ccc2c(=O)[nH]1
0.645	33.7	442	5.12 (≈ 15.4 µM)	–	–	COc1ccc2ccccc2c1CNC(=O)c1cnc(C2CC2)nc1

MDR1-MDCK efflux ratio	intrinsic clearance, human liver microsomes [mL/min/kg]	intrinsic clearance, rat liver microsomes [mL/min/kg]	aqueous solubility [µg/mL]	fraction unbound, human plasma	fraction unbound, rat plasma	Compound
8.27	12.6	707	–	–	–	CCCc1ccc(-c2cccc(C(=O)N3CCN(CC(N)=O)CC3)c2)cc1
1.16	24	74.9	–	–	–	Cc1c(C(=O)Nc2ccc(N3C[C@@H](C)O[C@H](C)C3)nc2)cccc1-c1ccc(OC(F)(F)F)cc1
1.08	29	75.1	8.73 (≈ 25.1 µM)	–	–	Cc1cc(C(=O)Nc2cccc(-c3cnco3)c2)c2c(C)nn(C)c2n1
0.681	–	–	31.8 (≈ 108 µM)	–	–	COC(=O)[C@@H]1C[C@H](O)CN1CC#Cc1ccc(Cl)cc1
44.4	≤ 4.74	29.7	31.5 (≈ 73.3 µM)	–	–	O=C1N[C@@H]2CCN(C(=O)c3ccc(-c4ccccc4)cc3)[C@@H]2C(=O)N1c1ccc(F)cc1
6.52	≤ 4.74	≤ 10.7	26.2 (≈ 125 µM)	–	–	Cc1nccn1CCNC(=O)C(C)(C)C
0.761	270	1280	–	–	–	O=C1CC(N2CCCN(c3ccc(C(F)(F)F)cn3)CC2)C(=O)N1c1ccccc1 (stereo unspecified)
0.976	–	–	42 (≈ 131 µM)	–	–	O=C(/C=C/N1C[C@H]2C[C@@H]1CN2c1ccccn1)c1ccccc1O
0.448	10.7	211	11.4 (≈ 43.8 µM)	–	–	N#Cc1ccccc1Cn1nnc(-c2ccccc2)n1
–	–	–	0.4 (≈ 0.811 µM)	–	–	CC1(COc2ccc3c(c2)ncn3-c2ccc3cccc(OS(=O)(=O)C(F)(F)F)c3n2)COC1
2.21	1340	4200	–	–	–	COc1ccc(NC(C)=O)cc1NC(=O)CN(Cc1ccccc1)C(C)C
0.738	–	–	0.77 (≈ 2.24 µM)	–	–	Cc1cc(C)c(NC(=O)Cn2nnn(-c3cccs3)c2=O)c(C)c1
8.9	–	–	–	–	–	Cc1cn(-c2cc(NC(=O)c3ccc(C)c(Nc4nccc(-c5cccnc5)n4)c3)cc(C(F)(F)F)c2)cn1
11.2	73.7	512	–	–	–	O=C(CCCC(=O)N1CCN(c2nsc3ccccc23)CC1)Nc1nccs1
19.1	≤ 4.74	65.9	59 (≈ 179 µM)	–	–	O=C1CCCN1CCc1nc(-c2ccc3[nH]c(=O)oc3c2)cs1
4.72	12.9	214	59.7 (≈ 160 µM)	–	–	COc1ccc(OC)c(-c2cc(C(=O)N3CCCN(C(C)=O)CC3)no2)c1
14.5	26.7	187	6.53 (≈ 19.9 µM)	–	–	O=C1CCCc2c1[nH]c1cc(-n3ccnc3-c3ccncc3)ccc21
0.526	–	–	0.18 (≈ 0.526 µM)	–	–	COc1ccc(-c2nn3c(-c4ccco4)nnc3c3ccccc23)cc1
0.522	87.4	1750	–	–	–	COc1ccc(C(=O)c2ccc(Cl)cc2)c(OC)c1
–	65.5	267	37.8 (≈ 149 µM)	–	–	N#CCN1CCCN(Cc2ccc(C#N)cc2)CC1
0.672	≤ 4.74	26.1	36.4 (≈ 149 µM)	–	–	CCOc1ncccc1-c1nc(C)cc(NC)n1
–	–	–	49 (≈ 190 µM)	–	–	CCc1cc2c(=O)[nH]c(-c3ccccn3)nc2s1
0.912	7.42	76.3	12.2 (≈ 46 µM)	–	–	CCc1nnc(NC(=O)Cc2cccc(F)c2)s1
2.16	51.4	419	54.8 (≈ 143 µM)	–	–	O=C(CN1CCCC(c2cccc(-c3cccc(Cl)c3)n2)C1)N1CCCC1 (stereo unspecified)
0.795	≤ 4.74	21.6	–	–	–	Cc1nc(NCc2sccc2C)n(C)n1
4.04	–	–	–	–	–	O=C(c1ccc2c(c1)CCCC2)N1CCOCC1c1ccn[nH]1 (stereo unspecified)
3	52.6	394	1.45 (≈ 3.6 µM)	–	–	O=S(=O)(c1cn[nH]c1)N1CCCC(c2cccc(-c3cccc(Cl)c3)n2)C1 (stereo unspecified)

Compound	MDR1-MDCK efflux ratio	intrinsic clearance, human liver microsomes [mL/min/kg]	intrinsic clearance, rat liver microsomes [mL/min/kg]	aqueous solubility [µg/mL]	fraction unbound, human plasma	fraction unbound, rat plasma
Cn1nc(C2CCNCC2)c2cccnc21	6.86	≤ 4.74	36.3	53.4 (≈ 247 µM)	–	–
Fc1cccc(Cl)c1CNCCc1c[nH]c2ccccc12	0.457	298	2150	48.3 (≈ 159 µM)	–	–
c1ccc2[nH]c(C3CCNCC3)nc2c1	–	–	–	56.3 (≈ 280 µM)	–	–
CC(C)(O)CNc1ncc(-c2ccnc(Nc3ccnc(Cl)c3)n2)c(CC2CC2)n1	10.5	23.6	149	21.9 (≈ 51.5 µM)	–	–
